# What was measured:
# [1] = Lipophilicity, logD of the compound; format: physicochemical; conditions: octanol/water
# [2] = Permeability from basolateral to apical side in human Caco2 cells at 10 uM; format: ADME, cell-based; conditions: Caco-2, read-out: permeability
# [3] = Aqueous solubility of the compound in HCL at pH 2.2; format: physicochemical
# [4] = Tmax in po dosed cynomolgus monkey; format: ADME, organism-based, Macaca fascicularis; conditions: in vivo
# [5] = Cmax in po dosed rat; format: ADME, organism-based; parameters: route oral; conditions: in vivo
# [6] = Clearance in iv dosed cynomolgus monkey; format: ADME, organism-based, Macaca fascicularis; conditions: in vivo
# [7] = AUC (0 to infinity) in po dosed rat; format: ADME, organism-based; parameters: time infinity, route oral; conditions: in vivo
# [8] = Aqueous solubility of the compound in PBS at pH 7.6; format: physicochemical
# [9] = AUC (0 to infinity) in po dosed cynomolgus monkey; format: ADME, organism-based, Macaca fascicularis; parameters: time infinity, route oral; conditions: in vivo
# [10] = Stability in human liver microsomes; format: ADME
# [11] = Permeability from apical to basolateral side in human Caco2 cells at 10 uM; format: ADME, cell-based; conditions: Caco-2, read-out: permeability
# [12] = Clearance in iv dosed rat; format: ADME, organism-based; conditions: in vivo
# [13] = Stability in rat liver microsomes; format: ADME
# [14] = Oral bioavailability in cynomolgus monkey; format: ADME, organism-based, Macaca fascicularis; conditions: in vivo
# [15] = Permeability from basolateral to apical side in human Caco2 cells at 1 uM; format: ADME, cell-based; conditions: Caco-2, read-out: permeability
# [16] = Volume of distribution at steady state in iv dosed rat; format: ADME, organism-based; conditions: in vivo, read-out: Vdss
# [17] = Cmax in po dosed cynomolgus monkey; format: ADME, organism-based, Macaca fascicularis; parameters: route oral; conditions: in vivo
# [18] = Stability in dog liver microsomes; format: ADME, Canis lupus familiaris
# [19] = Volume of distribution at steady state in iv dosed cynomolgus monkey; format: ADME, organism-based, Macaca fascicularis; conditions: in vivo, read-out: Vdss
# [20] = Oral bioavailability in rat; format: ADME, organism-based; conditions: in vivo
# [21] = Permeability from apical to basolateral side in human Caco2 cells at 1 uM; format: ADME, cell-based; conditions: Caco-2, read-out: permeability
# [22] = Tmax in po dosed rat; format: ADME, organism-based; conditions: in vivo
structure (smiles),measurement,setting,value
FC(F)(F)Oc1ccc(-c2ccc3nnc(C(F)(F)F)n3c2)cc1,logD,[1],3.38
same,Papp B→A at 10 µM,[2],35.2 ×10⁻⁶ cm/s
same,solubility,[3],6 µM
same,Tmax,[4],6 h
same,Cmax,[5],397 nM
same,clearance,[6],0.217 mL/min/kg
same,AUC(0-inf),[7],5.7 µM·h
same,solubility,[8],4.7 µM
same,AUC(0-inf),[9],76.1 µM·h
same,half-life,[10],> 6.58 h
same,Papp A→B at 10 µM,[11],27.9 ×10⁻⁶ cm/s
same,clearance,[12],3.22 mL/min/kg
same,half-life,[13],3.82 h
same,bioavailability,[14],83%
same,Papp B→A at 1 µM,[15],44 ×10⁻⁶ cm/s
same,Vd,[16],3.4 L
same,Cmax,[17],1480 nM
same,half-life,[18],1.17 h
same,Vd,[19],0.6 L
same,bioavailability,[20],105%
same,Papp A→B at 1 µM,[21],41.2 ×10⁻⁶ cm/s
same,Tmax,[22],2.7 h
